# According to ChEMBL document CHEMBL1201862, “PubChem BioAssay data set” (2004):
# Calls of active or inactive are those of the source.
# Legend:
# [1] = biological target: Disintegrin and metalloproteinase domain-containing protein 17 (Homo sapiens, UniProt P78536); experiment: inhibition of ADAM17 substrate cleavage – biochemical, quenched FRET substrate, counter-screen for ADAM10 exosite inhibitor project, dose response (AID 743253)
# [2] = potency of ADAM10 substrate cleavage blockers – biochemical, QFRET, dose response (AID 743254);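 also: ADAM10 enzyme with the DM2 quenched FRET peptide as substrate; EDANS fluorescence gain as the protease cuts the substrate; inhibitor potency against ADAM10 proteolytic activity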
# [3] = viability of uninfected HEp-2 cells – cell-based, HTS, cytotoxicity control for RSV inhibitor project, dose response (AID 2410); assay type: functional; settings: human respiratory syncytial virus
# [4] = IGROV1 cell killing – plate reader, dry powder samples, PAX8 inhibitor project, dose response (AID 743043); assay type: functional, cell-based; settings: IGROV-1
# Paired box protein Pax-8 = Paired box protein Pax-8 (Homo sapiens, UniProt Q06710); experiment: PAX8 transcriptional activity inhibition in RMG-I – RMG-I cells, luciferase, cherry-pick, dose response (AID 687027); assay type: functional, cell-based;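 also: luciferase reporter driven by Pax8 target thyroperoxidase promoter measured by SteadyGlo luminescence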
# [5] = A cytotoxicity screen of small molecule inhibitors of the PhoP region in Salmonella typhi identified in the primary screen. [Related pubchem assays: 1850, 1864, 1985 ]; assay type: functional
# [6] = NIH3T3 cell viability loss – ATP luminescence, mouse fibroblasts, counter-screen, dose response (AID 2010); assay type: functional, cell-based;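 also: cells exposed to compound for about 90 hours before reading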
# [7] = Trypanosoma cruzi growth suppression in host cells – NIH3T3 host cells, beta-gal luminescence, confirmation (AID 2044); assay type: functional, cell-based;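 also: intracellular parasites grown in NIH/3T3 mouse fibroblasts as host cells; luminescent beta-galactosidase reporter signal from transgenic T. cruzi replicating inside host cells; inhibitors lower the luminescence signal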
# Estrogen receptor = biological target: T1, Estrogen receptor (Homo sapiens, UniProt P03372);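 also: potency for inhibiting coactivator peptide recruitment to the receptor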
# T1 sequence (P03372 whole entry): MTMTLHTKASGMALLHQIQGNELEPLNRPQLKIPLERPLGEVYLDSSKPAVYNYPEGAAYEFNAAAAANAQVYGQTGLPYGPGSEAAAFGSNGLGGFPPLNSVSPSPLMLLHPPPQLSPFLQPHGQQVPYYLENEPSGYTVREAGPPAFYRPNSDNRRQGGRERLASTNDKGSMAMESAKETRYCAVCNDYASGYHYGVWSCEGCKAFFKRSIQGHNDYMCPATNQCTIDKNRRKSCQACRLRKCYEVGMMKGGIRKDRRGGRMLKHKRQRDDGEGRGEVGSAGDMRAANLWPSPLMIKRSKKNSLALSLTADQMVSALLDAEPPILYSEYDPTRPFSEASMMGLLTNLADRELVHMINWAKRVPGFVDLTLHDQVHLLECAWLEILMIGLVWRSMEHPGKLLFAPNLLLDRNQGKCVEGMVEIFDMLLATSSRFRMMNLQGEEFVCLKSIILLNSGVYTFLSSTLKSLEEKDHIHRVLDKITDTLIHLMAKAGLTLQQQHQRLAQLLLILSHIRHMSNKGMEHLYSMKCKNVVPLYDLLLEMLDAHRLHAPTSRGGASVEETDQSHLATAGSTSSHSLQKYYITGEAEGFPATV
# [8] = biological target: T2, Oxysterols receptor LXR-beta (Homo sapiens, UniProt P55055); experiment: LXR agonists, Gal4 luciferase reporter, dose response, counter-screen for ssDAF-12 agonist project, cell-based, luminescence, HEK293, S. stercoralis campaign (AID 720737); assay type: functional; settings: read-out: IC50 (the source's name)
# T2 sequence (P55055 whole entry): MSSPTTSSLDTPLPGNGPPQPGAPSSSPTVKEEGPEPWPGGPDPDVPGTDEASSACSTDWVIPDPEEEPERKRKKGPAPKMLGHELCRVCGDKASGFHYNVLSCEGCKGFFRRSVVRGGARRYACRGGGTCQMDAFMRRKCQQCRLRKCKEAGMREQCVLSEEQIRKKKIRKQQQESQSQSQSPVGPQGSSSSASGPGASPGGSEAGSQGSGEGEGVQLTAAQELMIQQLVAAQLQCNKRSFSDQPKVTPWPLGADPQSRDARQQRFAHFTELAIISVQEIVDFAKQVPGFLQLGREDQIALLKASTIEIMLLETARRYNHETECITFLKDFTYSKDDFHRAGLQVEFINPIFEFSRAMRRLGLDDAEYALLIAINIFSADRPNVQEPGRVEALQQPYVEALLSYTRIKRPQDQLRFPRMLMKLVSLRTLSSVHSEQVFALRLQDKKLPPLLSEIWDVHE
# [9] = Luminescence-based cell-based high throughput dose response assay to identify activators of the DAF-12 from the parasite S. stercoralis (ssDAF-12).; assay type: functional
# [10] = HIV-1 AD8 envelope cell-cell fusion blockers – cherry-pick, dose response (AID 652062); assay type: functional, cell-based;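 also: luciferase signal from cell-cell fusion driven by HIV-1 clade B AD8 Env; potency is for inhibitors of fusion seen as a drop in luminescence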
# [11] = growth inhibition of yeast DHODH-expressing 3D7 parasites – SYBR Green, dry powder samples, dose response (AID 1159570); assay type: functional, cell-based;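 also: parasite growth measured after 72 hours of compound exposure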
# [12] = growth inhibition of PfATP4-mutant resistant parasites – NITD609-resistant line, SYBR Green, dry powder, dose response (AID 1159571); assay type: functional, cell-based;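 also: parasites synchronized at ring stage by sorbitol before testing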
# [13] = P. falciparum Dd2 growth inhibitors, dose response, SYBR Green, cherry-picked samples (AID 1159567); assay type: functional, cell-based
# [14] = Dd2 malaria parasite growth inhibition potency – SYBR Green, dry powder samples, dose response (AID 1159566); assay type: functional, cell-based;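 also: potency for growth inhibition with lower SYBR green DNA signal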
# [15] = blockers of HIV-1 envelope-mediated cell-cell fusion – cherry-pick, dose response (AID 652057); assay type: functional, cell-based
# [16] = blockers of HIV-1 ZM109 envelope-driven cell-cell fusion – HeLa effector, CEM target cells, luciferase, cherry-pick, dose response (AID 652058); assay type: functional, cell-based;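 also: luciferase signal from HIV-1 Env mediated cell-cell fusion of effector and target cells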
# [17] = biological target: T3, DNA repair protein RAD52 homolog (Homo sapiens, UniProt P43351); assay type: functional, biochemical
# T3 sequence (P43351 whole entry): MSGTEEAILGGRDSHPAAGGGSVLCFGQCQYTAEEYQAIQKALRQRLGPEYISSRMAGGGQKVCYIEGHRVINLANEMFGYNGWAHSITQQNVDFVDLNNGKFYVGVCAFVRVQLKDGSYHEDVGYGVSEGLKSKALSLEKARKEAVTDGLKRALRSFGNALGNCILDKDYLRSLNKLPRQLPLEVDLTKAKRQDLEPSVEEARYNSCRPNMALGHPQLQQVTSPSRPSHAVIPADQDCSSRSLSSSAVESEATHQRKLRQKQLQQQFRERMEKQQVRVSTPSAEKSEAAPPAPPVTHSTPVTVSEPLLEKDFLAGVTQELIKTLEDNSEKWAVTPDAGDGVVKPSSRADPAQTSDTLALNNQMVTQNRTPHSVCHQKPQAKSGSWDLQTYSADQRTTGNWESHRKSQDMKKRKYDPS
# Large T antigen = Large T antigen (Simian virus 40, UniProt P03070); assay type: functional, Betapolyomavirus macacae;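 also: Confirmatory-stage PubChem screen for compounds that inhibit SV40 T antigen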
# [18] = HIV-1 Vif–A3G interaction blockers – biochemical, TR-FRET, GST-Vif 1-94, biotin-A3G peptide, dose response retest, primary screen (AID 1117319); assay type: functional;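 also: TR-FRET signal of purified GST-Vif binding a biotinylated A3G peptide; inhibitors lower the FRET signal by blocking Vif and A3G binding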
# [19] = viability loss in HEK293 cells – cell-based, plate reader, cherry-picked samples, cytotoxicity control, dose response (AID 743446); assay type: functional
# [20] = A549 cell cytotoxicity, dose response, cytotoxicity control, plate reader, cherry-pick, antagonist series (AID 743412); assay type: functional, cell-based
# [21] = toxicity toward HepG2 liver cells – cell-based, plate reader, cherry-pick, antagonist series, cytotoxicity control, dose response (AID 743416); assay type: functional
# Estrogen receptor beta = Estrogen receptor beta (Homo sapiens, UniProt Q92731);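 also: recombinant ER-beta bound to coactivator SRC1 peptide in presence of estradiol agonist; inhibitors block coactivator peptide binding and lower the FRET signal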
# INS1 = experiment: INS-1E survival protection against cytokine death – cell-based, luminescence, retest, dose response (AID 449756); assay type: functional; settings: Rattus norvegicus;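 also: cell death triggered by IL-1 beta plus TNF-alpha plus IFN-gamma mixture; protective hits raise ATP signal compared with cytokine alone wells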
# [22] = fluconazole-exposed Candida albicans growth modulators – fluorescence, retest, confirmation (AID 2467); assay type: functional, cell-based
# [23] = NIH-3T3 fibroblast cytotoxicity, dose response, cytotoxicity control, cell-based, fluorescence, Alamar Blue, secondary assay (AID 2327); assay type: functional;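 also: NIH-3T3 mouse fibroblasts cultured with fluconazole at 8 µg/mL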
# [24] = blockers of bursicon-stimulated LGR2 cAMP reporter – cell-based, HEK293, CRE-luciferase reporter, cherry pick, set 2, dose response (AID 743343); assay type: functional;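 also: transfected cells were stimulated with diluted bursicon conditioned medium after compound addition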
# [25] = biological target: FAD-linked sulfhydryl oxidase ALR (Homo sapiens, UniProt P55789); experiment: ALR-catalysed DTT oxidation blockers – biochemical, H2O2 detection, luminescence, cherry-pick, dose response (AID 493248)
# [26] = biological target: T4, Voltage-gated N-type calcium channel alpha-1B subunit/Amyloid beta A4 precursor protein-binding family A member 1 (Homo sapiens, UniProt Q00975+Q02410); assay type: protein assay
# [27] = biological target: T4, Voltage-gated N-type calcium channel alpha-1B subunit/Amyloid beta A4 precursor protein-binding family A member 1; assay type: protein assay; remark: listed apart in the source
# [28] = biological target: Induced myeloid leukemia cell differentiation protein Mcl-1 (Homo sapiens, UniProt Q07820); assay type: functional
# Chain of Induced myeloid leukemia cell differentiation protein Mcl-1 (Q07820 whole entry): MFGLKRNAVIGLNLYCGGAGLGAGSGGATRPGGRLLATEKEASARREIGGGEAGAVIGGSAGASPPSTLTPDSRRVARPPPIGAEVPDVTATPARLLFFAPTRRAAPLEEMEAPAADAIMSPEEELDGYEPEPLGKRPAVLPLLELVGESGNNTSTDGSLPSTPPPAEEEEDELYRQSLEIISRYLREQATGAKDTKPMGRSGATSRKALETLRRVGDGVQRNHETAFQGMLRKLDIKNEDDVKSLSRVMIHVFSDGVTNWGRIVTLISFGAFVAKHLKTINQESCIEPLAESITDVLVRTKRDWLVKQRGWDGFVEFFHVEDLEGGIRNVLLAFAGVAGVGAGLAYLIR
# Chain of Disintegrin and metalloproteinase domain-containing protein 17 (P78536 whole entry, the tested form may be a part): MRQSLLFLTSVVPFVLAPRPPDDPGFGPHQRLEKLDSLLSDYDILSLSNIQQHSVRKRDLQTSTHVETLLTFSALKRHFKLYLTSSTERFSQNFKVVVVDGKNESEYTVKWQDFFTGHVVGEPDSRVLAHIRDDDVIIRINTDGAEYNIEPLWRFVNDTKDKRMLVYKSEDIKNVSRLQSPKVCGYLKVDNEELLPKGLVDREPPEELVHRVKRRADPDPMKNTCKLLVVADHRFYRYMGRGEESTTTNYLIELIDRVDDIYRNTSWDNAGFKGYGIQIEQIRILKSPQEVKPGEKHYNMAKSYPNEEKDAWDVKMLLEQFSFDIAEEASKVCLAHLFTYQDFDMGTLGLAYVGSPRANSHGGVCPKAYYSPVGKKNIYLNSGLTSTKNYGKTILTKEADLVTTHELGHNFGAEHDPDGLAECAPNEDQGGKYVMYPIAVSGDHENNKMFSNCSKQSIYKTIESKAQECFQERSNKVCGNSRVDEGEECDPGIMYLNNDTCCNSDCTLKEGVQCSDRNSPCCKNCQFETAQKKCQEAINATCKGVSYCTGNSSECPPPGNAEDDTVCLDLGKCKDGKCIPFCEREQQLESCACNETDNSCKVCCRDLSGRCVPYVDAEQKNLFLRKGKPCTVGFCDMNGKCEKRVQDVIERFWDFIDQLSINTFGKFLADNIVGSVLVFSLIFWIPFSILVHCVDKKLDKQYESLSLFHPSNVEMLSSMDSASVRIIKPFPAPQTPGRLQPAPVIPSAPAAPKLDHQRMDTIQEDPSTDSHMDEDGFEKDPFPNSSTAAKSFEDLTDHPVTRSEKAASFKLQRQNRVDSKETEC
# Chain of Estrogen receptor beta (Q92731 whole entry): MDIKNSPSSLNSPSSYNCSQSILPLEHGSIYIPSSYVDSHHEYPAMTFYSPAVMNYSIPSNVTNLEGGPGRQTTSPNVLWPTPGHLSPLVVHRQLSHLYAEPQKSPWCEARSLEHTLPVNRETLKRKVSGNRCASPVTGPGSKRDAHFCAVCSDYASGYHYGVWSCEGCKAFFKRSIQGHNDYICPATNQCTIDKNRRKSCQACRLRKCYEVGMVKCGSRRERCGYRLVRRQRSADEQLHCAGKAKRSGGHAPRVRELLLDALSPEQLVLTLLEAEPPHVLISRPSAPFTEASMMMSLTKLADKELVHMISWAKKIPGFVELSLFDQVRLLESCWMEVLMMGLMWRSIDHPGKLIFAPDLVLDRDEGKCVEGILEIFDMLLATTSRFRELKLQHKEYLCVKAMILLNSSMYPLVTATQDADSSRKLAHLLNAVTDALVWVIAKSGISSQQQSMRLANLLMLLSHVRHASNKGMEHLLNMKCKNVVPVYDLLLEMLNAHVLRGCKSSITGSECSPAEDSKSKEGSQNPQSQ
# T4 sequence (Q00975 whole entry): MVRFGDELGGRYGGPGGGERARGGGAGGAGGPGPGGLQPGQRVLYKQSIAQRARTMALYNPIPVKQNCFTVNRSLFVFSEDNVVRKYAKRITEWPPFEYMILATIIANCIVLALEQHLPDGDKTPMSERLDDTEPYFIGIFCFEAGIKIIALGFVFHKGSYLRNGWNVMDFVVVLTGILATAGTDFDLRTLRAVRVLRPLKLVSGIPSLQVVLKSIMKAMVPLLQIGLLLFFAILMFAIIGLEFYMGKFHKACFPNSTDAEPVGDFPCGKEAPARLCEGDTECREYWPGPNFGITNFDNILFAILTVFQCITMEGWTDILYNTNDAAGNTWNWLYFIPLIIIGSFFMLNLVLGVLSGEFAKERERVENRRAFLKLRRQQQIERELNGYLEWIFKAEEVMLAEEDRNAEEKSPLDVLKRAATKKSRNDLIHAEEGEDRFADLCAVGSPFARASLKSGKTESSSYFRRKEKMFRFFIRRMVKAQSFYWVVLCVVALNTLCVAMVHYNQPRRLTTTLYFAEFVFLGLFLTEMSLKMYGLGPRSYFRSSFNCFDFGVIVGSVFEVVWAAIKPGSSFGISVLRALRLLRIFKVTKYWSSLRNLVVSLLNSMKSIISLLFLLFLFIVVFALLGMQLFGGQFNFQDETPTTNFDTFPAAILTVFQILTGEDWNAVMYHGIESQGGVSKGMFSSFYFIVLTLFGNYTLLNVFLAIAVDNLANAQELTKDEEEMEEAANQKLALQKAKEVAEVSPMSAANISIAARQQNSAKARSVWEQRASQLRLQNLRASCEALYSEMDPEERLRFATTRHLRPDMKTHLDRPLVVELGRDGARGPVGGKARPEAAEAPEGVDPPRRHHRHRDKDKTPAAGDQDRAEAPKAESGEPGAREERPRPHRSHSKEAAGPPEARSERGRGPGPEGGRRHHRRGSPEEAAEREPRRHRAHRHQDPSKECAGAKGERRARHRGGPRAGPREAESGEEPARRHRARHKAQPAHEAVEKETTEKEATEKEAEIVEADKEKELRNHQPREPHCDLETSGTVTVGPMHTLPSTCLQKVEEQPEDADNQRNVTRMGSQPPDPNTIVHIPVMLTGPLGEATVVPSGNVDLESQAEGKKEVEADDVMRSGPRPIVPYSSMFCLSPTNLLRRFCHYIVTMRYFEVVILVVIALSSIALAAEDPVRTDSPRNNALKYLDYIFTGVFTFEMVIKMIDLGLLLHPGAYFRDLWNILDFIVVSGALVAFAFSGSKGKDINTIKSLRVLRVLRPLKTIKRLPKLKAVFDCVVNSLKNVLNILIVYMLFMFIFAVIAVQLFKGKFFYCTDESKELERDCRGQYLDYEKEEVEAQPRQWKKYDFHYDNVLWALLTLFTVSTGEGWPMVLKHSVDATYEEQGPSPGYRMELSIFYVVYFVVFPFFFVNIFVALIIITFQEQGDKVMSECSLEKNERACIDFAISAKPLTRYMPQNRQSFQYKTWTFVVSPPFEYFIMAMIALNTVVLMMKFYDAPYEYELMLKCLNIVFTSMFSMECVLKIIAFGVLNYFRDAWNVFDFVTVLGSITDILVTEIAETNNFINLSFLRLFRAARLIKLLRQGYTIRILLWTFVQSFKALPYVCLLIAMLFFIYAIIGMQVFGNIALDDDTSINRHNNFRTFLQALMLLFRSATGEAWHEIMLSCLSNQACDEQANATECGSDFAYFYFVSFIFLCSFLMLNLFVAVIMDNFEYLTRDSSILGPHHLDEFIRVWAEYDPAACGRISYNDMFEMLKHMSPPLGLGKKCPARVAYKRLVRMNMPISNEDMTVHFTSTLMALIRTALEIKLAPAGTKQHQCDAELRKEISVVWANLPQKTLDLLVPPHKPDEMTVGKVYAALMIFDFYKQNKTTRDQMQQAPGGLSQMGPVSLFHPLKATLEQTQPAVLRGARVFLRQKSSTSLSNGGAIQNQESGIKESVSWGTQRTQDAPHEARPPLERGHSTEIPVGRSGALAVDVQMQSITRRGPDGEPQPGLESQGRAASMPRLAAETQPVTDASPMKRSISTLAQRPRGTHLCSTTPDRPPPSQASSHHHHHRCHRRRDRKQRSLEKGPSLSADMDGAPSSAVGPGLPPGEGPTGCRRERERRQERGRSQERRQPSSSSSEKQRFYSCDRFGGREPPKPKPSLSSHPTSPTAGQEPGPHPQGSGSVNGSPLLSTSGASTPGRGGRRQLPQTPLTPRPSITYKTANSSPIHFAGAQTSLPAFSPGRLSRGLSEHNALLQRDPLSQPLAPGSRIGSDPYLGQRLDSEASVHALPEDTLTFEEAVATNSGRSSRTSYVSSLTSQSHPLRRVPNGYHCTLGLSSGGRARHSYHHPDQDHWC
# T4 sequence (Q02410 whole entry): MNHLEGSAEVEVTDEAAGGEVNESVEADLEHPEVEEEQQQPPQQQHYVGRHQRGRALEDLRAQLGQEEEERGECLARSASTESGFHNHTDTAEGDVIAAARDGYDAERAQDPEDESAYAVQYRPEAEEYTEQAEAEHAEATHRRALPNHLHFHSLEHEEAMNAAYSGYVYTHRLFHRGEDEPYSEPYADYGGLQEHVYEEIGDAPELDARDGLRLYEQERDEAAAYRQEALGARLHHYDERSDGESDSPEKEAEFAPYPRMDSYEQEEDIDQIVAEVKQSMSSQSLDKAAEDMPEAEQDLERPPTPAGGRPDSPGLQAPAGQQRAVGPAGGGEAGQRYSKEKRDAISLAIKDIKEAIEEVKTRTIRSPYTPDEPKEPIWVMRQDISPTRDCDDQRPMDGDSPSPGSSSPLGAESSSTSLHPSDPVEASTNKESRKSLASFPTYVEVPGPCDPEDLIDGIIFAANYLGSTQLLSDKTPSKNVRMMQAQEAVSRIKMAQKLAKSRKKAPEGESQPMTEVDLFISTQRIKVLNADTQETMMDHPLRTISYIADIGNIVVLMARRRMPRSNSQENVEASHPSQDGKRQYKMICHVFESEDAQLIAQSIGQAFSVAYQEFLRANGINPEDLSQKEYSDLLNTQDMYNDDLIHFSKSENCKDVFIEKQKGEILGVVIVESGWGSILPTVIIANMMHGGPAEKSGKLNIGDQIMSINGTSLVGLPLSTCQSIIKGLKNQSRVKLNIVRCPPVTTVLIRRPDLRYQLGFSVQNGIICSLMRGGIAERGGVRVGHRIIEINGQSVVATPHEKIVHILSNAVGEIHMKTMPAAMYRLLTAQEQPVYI
# Chain of FAD-linked sulfhydryl oxidase ALR (P55789 whole entry): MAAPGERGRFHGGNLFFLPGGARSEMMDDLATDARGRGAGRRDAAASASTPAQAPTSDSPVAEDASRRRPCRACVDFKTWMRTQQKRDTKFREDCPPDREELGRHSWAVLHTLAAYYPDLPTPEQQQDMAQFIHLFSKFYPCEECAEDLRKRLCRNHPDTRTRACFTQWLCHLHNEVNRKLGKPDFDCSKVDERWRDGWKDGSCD
structure (smiles),measurement,setting,value
O=C(c1cccs1)N1N=C(c2ccccc2)CC1c1ccc(O)cc1 (stereo not given),IC50,[1],> 69.5 µM (inactive)
same,IC50,[2],> 69.5 µM (inactive)
same,CC50,[3],24.2 µM (active)
C[C@@H]1CCCCO[C@@H](CN(C)Cc2ccc(C(F)(F)F)cc2)[C@H](C)CN([C@H](C)CO)C(=O)c2cc(NC(=O)c3ccccc3)ccc2O1,AC50,[4],40.9 µM (active)
same,AC50,Paired box protein Pax-8,9.55 µM (active)
CC1CCN(C(=O)COc2ccc(Nc3ccccc3)cc2)CC1,EC50,[5],> 50 µM (active)
C[C@]12CCC(O)CC1=CCC1C2CC[C@]2(C)/C(=N\NC(N)=S)CCC12 (stereo not given in full),EC50,[6],> 60 µM (not active)
same,EC50,[7],< 0.1 µM (active)
same,EC50,cells,0.103 µM (active)
COCCOC(=O)c1[nH]c2c(c1C)C(=O)CC(c1ccco1)C2 (stereo not given),IC50,Estrogen receptor,19.5 µM (active)
COc1cccc(NC(=O)CN(C)C(C)C(=O)Nc2ccc(S(=O)(=O)N3CCOCC3)cc2)c1 (stereo not given),EC50,[5],> 50 µM (active)
Clc1cccc(-c2nc3c4ccccc4ccn3c2Cc2ccsc2)c1,EC50,[8],> 67.6 µM (inactive)
same,IC50,[9],> 67.6 µM (inactive)
CCCNC(=O)C1CCN(c2ccc(S(=O)(=O)N3CCOCC3)cc2Cl)CC1,EC50,[5],> 50 µM (active)
C[C@@H](NC(=O)C[C@H]1C[C@@H]2c3cc(NS(=O)(=O)c4ccc(F)cc4)ccc3O[C@@H]2[C@H](CO)O1)c1ccccc1,AC50,[10],31.7 µM (active)
same,AC50,[11],2.76 µM (active)
same,AC50,[12],1.09 µM (active)
same,AC50,[13],2.22 µM (active)
same,AC50,[14],1.4 µM (active)
same,AC50,[15],1.12 µM (active)
same,AC50,[16],3.32 µM (active)
CCN1CCc2nc(N)sc2C1,AC50,[17],23.4 µM (active)
COc1ccc(C2CC(c3cccs3)=NN2C(=O)CN2CCCCC2)cc1 (stereo not given),EC50,[8],> 67.5 µM (inactive)
same,IC50,[9],> 67.5 µM (inactive)
c1cc(OCCCN2CCCCC2)ccc1CN1CCCCC1 [JNJ-5207852],AC50,[17],10.3 µM (active)
CCN(CC)c1ccc(NC(=O)c2ccco2)cc1,IC50,Large T antigen,5.01 µM (active)
same,IC50,[18],> 100 µM (active)
COc1ccc(NC(=O)c2ccc(-c3ccccc3)cc2)cc1NS(=O)(=O)c1ccc(F)cc1,IC50,[1],> 69.5 µM (inactive)
same,IC50,[2],> 69.5 µM (inactive)
COc1ccc2cc(C#N)c(Nc3cccc(F)c3)nc2c1,AC50,[19],> 52 µM (inactive)
same,AC50,[20],> 52 µM (inactive)
same,AC50,[21],> 52 µM (inactive)
CCN(CC)CCNC(=O)c1cc(Cl)c(N)cc1OC,IC50,Estrogen receptor beta,> 50 µM (not active)
Cc1cc(-c2ccccc2)cc(-c2ccccc2)[n+]1CCc1ccccc1.[O-][Cl+3]([O-])([O-])[O-],EC50,[6],> 60 µM (not active)
same,AC50,INS1,< 0.195 µM (active)
same,EC50,[22],2.98 µM (active)
same,EC50,[7],< 0.1 µM (active)
same,EC50,[23],> 160 µM (inactive)
same,EC50,cells,0.07 µM (active)
CCS(=O)(=O)c1ccc2oc(Nc3cccc(OC)c3)nc2c1,IC50,[18],> 100 µM (active)
O=C(Nc1ccon1)C12CC3CC(C1)CC(n1cnc([N+](=O)[O-])n1)(C3)C2,EC50,[6],> 60 µM (not active)
same,EC50,[7],< 0.1 µM (active)
same,EC50,cells,0.088 µM (active)
CCN(CC)CCCNC(=O)c1c(O)nc2c(c1O)CCCC2,EC50,[5],> 50 µM (active)
COc1ccc(-n2c(Cc3cccs3)nnc2SCC(=O)Nc2ccc(OCc3ccccc3)cc2)cc1,IC50,[1],> 69.5 µM (inactive)
same,IC50,[2],> 69.5 µM (inactive)
O=C(CSc1nc2ccccc2[nH]1)Nc1nc(-c2cccc(Br)c2)cs1,IC50,[1],> 69.5 µM (inactive)
same,AC50,[24],35.4 µM (active)
same,AC50,[20],24.2 µM (active)
same,IC50,[2],> 69.5 µM (inactive)
same,AC50,[21],38.4 µM (active)
Nc1[nH]n(-c2ccccc2)c(=O)c1/N=N/c1ccccc1[N+](=O)[O-],IC50,Estrogen receptor beta,> 50 µM (not active)
COCCCNc1nc2c(-c3ccc(C)cc3)nnn2c2ccccc12,EC50,[8],> 67.5 µM (inactive)
same,IC50,[9],> 67.5 µM (inactive)
COc1ccc(Cl)cc1N(CC(=O)Nc1ccc2c(c1)OCO2)S(C)(=O)=O,IC50,[18],> 100 µM (active)
O=[N+]([O-])c1ccc(-c2c[nH]c(S)n2)cc1,AC50,[25],1.99 µM (active)
same,IC50,[26],11.3 µM (active)
same,IC50,[27],> 50 µM (inactive)
same,IC50,[18],> 100 µM (active)
same,IC50,[28],1.38 µM (active)
